According to patent US10597388B2, “Pyridazinone herbicides” (FMC CORPORATION, priority 2014, dated 2020):

Assays:
Assay type in all cases: in vivo
[1] = tested on: galium (catchweed bedstraw, Galium aparine); assay: Test A greenhouse herbicide test, postemergence; conditions: for Galium plant response rating: 0 to 100 scale, 0 is no effect, 100 is complete control
Summary of the method: (§1)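 Seedlings in a loam soil and sand mix received formulated compound postemergence at the one- to two-leaf stage. Greenhouse holding lasts approximately 10 d, then injury is scored visually relative to untreated plants, 0 meaning no effect and 100 complete control.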

[2] = tested on: blackgrass (Alopecurus myosuroides); assay: Test A greenhouse herbicide test, postemergence; conditions: for Blackgrass plant response rating: 0 to 100 scale, 0 is no effect, 100 is complete control
Summary of the method: as §1

kochia (Kochia scoparia) = assay: Test A greenhouse herbicide test, pre- and postemergence
From the text: (§2) Seeds of plant species selected from barnyardgrass (Echinochloa crus-galli), kochia (Kochia scoparia), ragweed (common ragweed, Ambrosia elatior), ryegrass, Italian (Italian ryegrass, Lolium multiflorum), crabgrass, large (large crabgrass, Digitaria sanguinalis), foxtail, giant (giant foxtail, Setaria faberii), momingglory (Ipomoea spp.), pigweed (Amaranthus retroflexus), velvetleaf (Abutilon theophrasti), wheat (Triticum aestivum), and corn (Zea mays) were planted into a blend of loam soil and sand and treated preemergence with a directed soil spray using test chemicals formulated in a non-phytotoxic solvent mixture which included a surfactant.
(§3) At the same time, plants selected from these crop and weed species and also blackgrass (Alopecurus myosuroides), and galium (catchweed bedstraw, Galium aparine) were planted in pots containing the same blend of loam soil and sand and treated with postemergence applications of test chemicals formulated in the same manner. Plants ranged in height from 2 to 10 cm and were in the one- to two-leaf stage for the postemergence treatment. Treated plants and untreated controls were maintained in a greenhouse for approximately 10 d, after which time all treated plants were compared to untreated controls and visually evaluated for injury. Plant response ratings, summarized in Table A, are based on a 0 to 100 scale where 0 is no effect and 100 is complete control. A dash (-) response means no test result.

[3] = tested on: pigweed (Amaranthus retroflexus); assay: as above
From the text: as §2, §3

corn (Zea mays) = assay: as above; conditions: Postemergence; for Corn plant response rating: 0 to 100 scale, 0 is no effect, 100 is complete control
From the text: as §2, §3

[4] = tested on: barnyardgrass (Echinochloa crus-galli); assay: as above
From the text: as §2, §3

[5] = tested on: ryegrass, Italian (Italian ryegrass, Lolium multiflorum); assay: as above
From the text: as §2, §3

[6] = tested on: foxtail, giant (giant foxtail, Setaria faberii); assay: as above
From the text: as §2, §3

[7] = tested on: wheat (Triticum aestivum); assay: as above; conditions: Postemergence; for Wheat plant response rating: 0 to 100 scale, 0 is no effect, 100 is complete control
From the text: as §2, §3

[8] = tested on: ragweed (common ragweed, Ambrosia elatior); assay: as above
From the text: as §2, §3

rice (Oryza sativa) = assay: Test B flooded paddy test; conditions: 250 g ai/ha, Flood; visual rating on scale of 0 to 100 where 0 is no effect and 100 is complete control; 13 to 15 d after treatment
Summary of the method: (§4)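 Ratings use a 0-100 visual scale, where 100 is complete control, and compare treated plants with controls after 13 to 15 d of greenhouse growth. Compound went straight into paddy water kept 3 cm over the soil surface, applied to seedlings at the 2-leaf stage.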

[9] = tested on: ducksalad (Heteranthera limosa); assay: Test B flooded paddy test; conditions: 250 g ai/ha, Flood; visual rating on scale of 0 to 100 where 0 is no effect and 100 is complete control; 13 to 15 d after treatment
Summary of the method: as §4

[10] = tested on: barnyardgrass (Echinochloa crus-galli); assay: Test B flooded paddy test; conditions: 250 g ai/ha, Flood; visual rating on scale of 0 to 100 where 0 is no effect and 100 is complete control; 13 to 15 d after treatment
Summary of the method: as §4

[11] = tested on: sedge, umbrella (small-flower umbrella sedge, Cyperus difformis); assay: Test B flooded paddy test; conditions: 250 g ai/ha, Flood; visual rating on scale of 0 to 100 where 0 is no effect and 100 is complete control; 13 to 15 d after treatment
Summary of the method: as §4

[12] = 125 g ai/ha, 0 to 100 scale where 0 is no effect and 100 is complete control
[13] = Postemergence, 125 g ai/ha, 0 to 100 scale where 0 is no effect and 100 is complete control
[14] = Postemergence, 500 g ai/ha, 0 to 100 scale, 0 is no effect, 100 is complete control
[15] = Preemergence, 125 g ai/ha, 0 to 100 scale where 0 is no effect and 100 is complete control
[16] = Preemergence, 500 g ai/ha, 0 to 100 scale where 0 is no effect and 100 is complete control
[17] = 500 g ai/ha, visual rating after approx. 10 d, 0 to 100 scale (0 no effect, 100 complete control)
[18] = Postemergence, 500 g ai/ha, visual rating after approx. 10 d, 0 to 100 scale (0 no effect, 100 complete control)

SMILES	Plant response rating, Galium [1, 12]	Plant response rating, Blackgrass [2, 12]	Plant response rating, Kochia (kochia (Kochia scoparia); [13])	Kochia plant response rating (kochia (Kochia scoparia); [15])	Plant response rating, Kochia (kochia (Kochia scoparia); [16])	Plant response rating, Pigweed [3, 13]	Pigweed plant response rating [3, 15]	Plant response rating, Pigweed [3, 16]	Plant response rating, Corn (corn (Zea mays); [12])	Plant response rating, Barnyardgrass [4, 13]	Barnyardgrass plant response rating [4, 15]	Plant response rating, Barnyardgrass [4, 16]	Plant response rating, Ryegrass, Italian [5, 13]	Ryegrass, Italian plant response rating [5, 15]	Plant response rating, Ryegrass, Italian [5, 16]	Plant response rating, Foxtail, Giant [6, 13]	Foxtail, Giant plant response rating [6, 15]	Plant response rating, Foxtail, Giant [6, 16]	Plant response rating, Wheat [7, 12]	Plant response rating, Ragweed [8, 13]	also measured
COc1nn(C)c(=O)c(-c2c(C(F)F)ccc3ccccc23)c1O [Compound 86]	90	10	70	0	40	90	80	100	0	30	0	40	0	0	40	50	20	70	0	80	Galium plant response rating ([1]; 500 g ai/ha): 100; Blackgrass plant response rating ([2]; 500 g ai/ha): 30; Kochia plant response rating (kochia (Kochia scoparia); [14]): 80; Pigweed plant response rating [3, 14]: 90; Corn plant response rating (corn (Zea mays); 500 g ai/ha): 0; Barnyardgrass plant response rating [4, 14]: 10; Ryegrass, Italian plant response rating [5, 14]: 50; Foxtail, Giant plant response rating [6, 14]: 70; Wheat plant response rating ([7]; 500 g ai/ha): 0; Ragweed plant response rating [8, 14]: 80; Ragweed plant response rating [8, 15]: 40; Plant response rating, Ragweed [8, 16]: 90; Plant response rating, Rice (rice (Oryza sativa)): 15; Plant response rating, Ducksalad [9]: 20; Plant response rating, Barnyardgrass [10]: 0; Plant response rating, Sedge, Umbrella [11]: 60
CCOc1ccc2cccc(-c3c(O)c(C)nn(C)c3=O)c2c1 [Compound 92]	10	0	60	0	20	20	0	0	0	0	0	0	0	0	0	0	0	0	0	0	Galium plant response rating ([1]; 500 g ai/ha): 30; Blackgrass plant response rating ([2]; 500 g ai/ha): 20; Kochia plant response rating (kochia (Kochia scoparia); [14]): 70; Pigweed plant response rating [3, 14]: 30; Corn plant response rating (corn (Zea mays); 500 g ai/ha): 0; Barnyardgrass plant response rating [4, 14]: 0; Ryegrass, Italian plant response rating [5, 14]: 0; Foxtail, Giant plant response rating [6, 14]: 0; Wheat plant response rating ([7]; 500 g ai/ha): 0; Ragweed plant response rating [8, 14]: 0; Ragweed plant response rating [8, 15]: 0; Plant response rating, Ragweed [8, 16]: 0; Plant response rating, Rice (rice (Oryza sativa)): 0; Plant response rating, Ducksalad [9]: 0; Plant response rating, Barnyardgrass [10]: 0; Plant response rating, Sedge, Umbrella [11]: 40
Cc1nn(C)c(=O)c(-c2cccc3ccc(OC(F)F)cc23)c1O [Compound 93]	70	0	20	0	30	30	20	90	0	0	0	0	40	20	40	0	0	0	0	0	Galium plant response rating ([1]; 500 g ai/ha): 90; Blackgrass plant response rating ([2]; 500 g ai/ha): 0; Kochia plant response rating (kochia (Kochia scoparia); [14]): 30; Pigweed plant response rating [3, 14]: 60; Corn plant response rating (corn (Zea mays); 500 g ai/ha): 30; Barnyardgrass plant response rating [4, 14]: 20; Ryegrass, Italian plant response rating [5, 14]: 90; Foxtail, Giant plant response rating [6, 14]: 10; Wheat plant response rating ([7]; 500 g ai/ha): 20; Ragweed plant response rating [8, 14]: 50; Ragweed plant response rating [8, 15]: 0; Plant response rating, Ragweed [8, 16]: 20; Plant response rating, Rice (rice (Oryza sativa)): 0; Plant response rating, Ducksalad [9]: 0; Plant response rating, Barnyardgrass [10]: 0; Plant response rating, Sedge, Umbrella [11]: 50
Cc1ccc2c(-c3c(O)c(C)nn(C)c3=O)c(C)ccc2c1 [Compound 110]	70	20	50	0	100	70	90	100	0	0	0	20	70	20	80	0	10	40	0	60	Plant response rating, Galium [1, 17]: 90; Plant response rating, Blackgrass [2, 17]: 60; Plant response rating, Kochia (kochia (Kochia scoparia); [18]): 70; Plant response rating, Pigweed [3, 18]: 90; Plant response rating, Corn (corn (Zea mays); [17]): 20; Plant response rating, Barnyardgrass [4, 18]: 10; Plant response rating, Ryegrass, Italian [5, 18]: 90; Plant response rating, Foxtail, Giant [6, 18]: 10; Plant response rating, Wheat [7, 17]: 40; Plant response rating, Ragweed [8, 18]: 100; Ragweed plant response rating [8, 15]: 30; Plant response rating, Ragweed [8, 16]: 40; Plant response rating, Rice (rice (Oryza sativa)): 0; Plant response rating, Ducksalad [9]: 0; Plant response rating, Barnyardgrass [10]: 0; Plant response rating, Sedge, Umbrella [11]: 0
COC(=O)Oc1c(OC)nn(C)c(=O)c1-c1c(C)sc2ccc(Cl)cc12 [Compound 112]	70	40	20	20	80	20	90	100	0	20	10	20	80	90	100	20	50	60	20	60	Plant response rating, Galium [1, 17]: 90; Plant response rating, Blackgrass [2, 17]: 80; Plant response rating, Kochia (kochia (Kochia scoparia); [18]): 30; Plant response rating, Pigweed [3, 18]: 30; Plant response rating, Corn (corn (Zea mays); [17]): 30; Plant response rating, Barnyardgrass [4, 18]: 20; Plant response rating, Ryegrass, Italian [5, 18]: 100; Plant response rating, Foxtail, Giant [6, 18]: 50; Plant response rating, Wheat [7, 17]: 30; Plant response rating, Ragweed [8, 18]: 80; Ragweed plant response rating [8, 15]: 40; Plant response rating, Ragweed [8, 16]: 80; Plant response rating, Rice (rice (Oryza sativa)): 0; Plant response rating, Ducksalad [9]: 0; Plant response rating, Barnyardgrass [10]: 0; Plant response rating, Sedge, Umbrella [11]: 0
